Assay results: the Kinase Knowledgebase extract (Sharma et al. 2016)

Columns and labels:
[1] = target: MAPK14 (UniProt Q16539); assay: Inhibition of MAPK14 Kinase Activity; settings: concentration not given here
[2] = target: EGFR (UniProt P00533); settings: concentration not given here
[3] = target: ROCK2 (UniProt O75116); assay: Inhibition of ROCK2 Kinase Activity; settings: for inhibition: concentration not given here
[4] = target: CDK2 (UniProt P24941); assay: Enzyme Assay; settings: for inhibition: concentration not given here

Sequence of ROCK2 (O75116 whole entry, looked up): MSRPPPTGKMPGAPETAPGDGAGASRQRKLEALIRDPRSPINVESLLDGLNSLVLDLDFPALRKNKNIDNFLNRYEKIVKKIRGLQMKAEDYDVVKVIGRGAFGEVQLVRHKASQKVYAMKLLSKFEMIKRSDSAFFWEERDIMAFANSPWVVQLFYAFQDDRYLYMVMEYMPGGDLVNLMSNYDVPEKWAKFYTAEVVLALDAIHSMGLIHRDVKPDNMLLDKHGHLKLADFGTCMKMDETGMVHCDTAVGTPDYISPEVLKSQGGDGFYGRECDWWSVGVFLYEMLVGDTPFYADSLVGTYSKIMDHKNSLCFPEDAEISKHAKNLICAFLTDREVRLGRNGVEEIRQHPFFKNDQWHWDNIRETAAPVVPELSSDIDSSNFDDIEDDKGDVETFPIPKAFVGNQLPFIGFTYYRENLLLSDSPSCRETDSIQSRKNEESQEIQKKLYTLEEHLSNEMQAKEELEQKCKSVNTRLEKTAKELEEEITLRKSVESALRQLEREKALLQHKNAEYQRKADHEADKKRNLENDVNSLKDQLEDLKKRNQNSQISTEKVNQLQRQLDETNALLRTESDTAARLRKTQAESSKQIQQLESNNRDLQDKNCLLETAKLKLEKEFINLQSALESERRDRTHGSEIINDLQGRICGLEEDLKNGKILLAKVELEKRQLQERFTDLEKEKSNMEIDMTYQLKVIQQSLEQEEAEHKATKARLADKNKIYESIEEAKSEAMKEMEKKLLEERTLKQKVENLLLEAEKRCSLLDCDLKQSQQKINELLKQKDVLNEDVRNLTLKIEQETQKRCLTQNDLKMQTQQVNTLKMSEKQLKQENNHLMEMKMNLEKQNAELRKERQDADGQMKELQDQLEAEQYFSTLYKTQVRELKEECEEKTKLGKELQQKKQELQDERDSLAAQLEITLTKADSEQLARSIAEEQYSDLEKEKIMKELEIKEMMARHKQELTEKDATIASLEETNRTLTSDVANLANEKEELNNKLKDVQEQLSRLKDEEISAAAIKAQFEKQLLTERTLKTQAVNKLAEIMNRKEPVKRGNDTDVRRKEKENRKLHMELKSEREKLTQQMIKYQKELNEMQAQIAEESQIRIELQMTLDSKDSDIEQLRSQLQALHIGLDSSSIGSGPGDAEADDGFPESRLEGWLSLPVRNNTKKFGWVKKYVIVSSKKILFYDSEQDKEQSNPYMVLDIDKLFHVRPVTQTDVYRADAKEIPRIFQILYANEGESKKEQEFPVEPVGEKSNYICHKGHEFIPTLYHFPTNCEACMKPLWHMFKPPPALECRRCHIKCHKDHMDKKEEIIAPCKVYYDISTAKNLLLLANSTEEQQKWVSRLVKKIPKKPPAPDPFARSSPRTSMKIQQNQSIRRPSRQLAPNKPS
Sequence of EGFR (P00533 whole entry, looked up): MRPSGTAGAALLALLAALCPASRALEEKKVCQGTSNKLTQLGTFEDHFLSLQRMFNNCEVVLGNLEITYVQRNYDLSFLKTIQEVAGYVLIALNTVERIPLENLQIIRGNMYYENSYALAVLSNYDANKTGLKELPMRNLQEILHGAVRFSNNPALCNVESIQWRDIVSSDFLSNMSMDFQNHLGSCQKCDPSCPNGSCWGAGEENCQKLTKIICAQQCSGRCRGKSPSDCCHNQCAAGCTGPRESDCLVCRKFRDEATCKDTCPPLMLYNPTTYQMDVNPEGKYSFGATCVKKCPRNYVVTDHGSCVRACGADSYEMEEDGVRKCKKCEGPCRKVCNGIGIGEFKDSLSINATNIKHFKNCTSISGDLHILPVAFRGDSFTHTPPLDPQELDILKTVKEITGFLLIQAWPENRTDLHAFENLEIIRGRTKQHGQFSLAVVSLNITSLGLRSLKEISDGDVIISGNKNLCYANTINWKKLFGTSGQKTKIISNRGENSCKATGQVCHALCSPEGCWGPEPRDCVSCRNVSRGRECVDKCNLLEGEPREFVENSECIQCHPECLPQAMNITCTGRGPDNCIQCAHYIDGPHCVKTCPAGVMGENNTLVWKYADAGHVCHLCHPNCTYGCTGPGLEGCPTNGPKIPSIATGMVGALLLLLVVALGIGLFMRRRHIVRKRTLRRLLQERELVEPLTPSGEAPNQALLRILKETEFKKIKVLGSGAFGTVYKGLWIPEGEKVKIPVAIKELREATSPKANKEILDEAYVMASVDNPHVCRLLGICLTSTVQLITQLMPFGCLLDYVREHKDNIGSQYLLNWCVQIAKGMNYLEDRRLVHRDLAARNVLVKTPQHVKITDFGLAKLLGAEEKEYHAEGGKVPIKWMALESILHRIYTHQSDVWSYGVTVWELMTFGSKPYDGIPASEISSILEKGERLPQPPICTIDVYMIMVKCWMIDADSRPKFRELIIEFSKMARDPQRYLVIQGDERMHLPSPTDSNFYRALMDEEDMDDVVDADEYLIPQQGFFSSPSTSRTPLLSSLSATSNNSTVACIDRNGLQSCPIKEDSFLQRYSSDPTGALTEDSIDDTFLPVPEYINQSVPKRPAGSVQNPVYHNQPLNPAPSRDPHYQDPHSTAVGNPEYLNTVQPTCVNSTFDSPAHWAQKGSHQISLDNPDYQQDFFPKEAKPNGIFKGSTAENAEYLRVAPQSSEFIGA
Sequence of MAPK14 (Q16539 whole entry, looked up): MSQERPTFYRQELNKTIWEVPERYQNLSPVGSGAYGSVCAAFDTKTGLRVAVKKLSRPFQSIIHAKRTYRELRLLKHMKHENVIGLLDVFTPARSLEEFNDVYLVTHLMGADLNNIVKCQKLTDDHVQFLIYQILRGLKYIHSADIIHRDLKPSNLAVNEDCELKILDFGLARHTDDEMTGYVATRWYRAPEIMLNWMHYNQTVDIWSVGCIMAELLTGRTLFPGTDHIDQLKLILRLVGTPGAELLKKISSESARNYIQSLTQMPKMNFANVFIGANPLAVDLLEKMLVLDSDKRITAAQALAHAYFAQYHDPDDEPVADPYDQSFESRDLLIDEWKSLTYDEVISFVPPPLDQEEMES

Structure (SMILES) | inhibition [2] [%] | inhibition [3] [%] | other results
CC(=O)Nc1cccc(-c2cncc(NCc3cccc(O)c3)c2)c1 | 50 to 90 |  | inhibition [1]: 50 to 90%
Oc1cccc(CNc2cncc(-c3ccc(N4CCOCC4)cc3)c2)c1 | 50 to 90 |  | 
CN(Cc1cccc(O)c1)c1cncc(-c2cccc(O)c2)c1 |  | 50 to 90 | 
Oc1cccc(CNc2cncc(-c3cccc(O)c3)c2)c1 | 50 to 90 | 50 to 90 | 
O=C(O)c1cccc(-c2cncc(NCc3cccc(O)c3)c2)c1 | 50 to 90 |  | 
Oc1ccc(-c2cncc(NCc3ccc(F)c(F)c3)c2)cc1 |  | 50 to 90 | 
CS(=O)(=O)Nc1cccc(-c2cncc(NCc3cccc(O)c3)c2)c1 | 50 to 90 |  | 
COc1ccc(-c2cncc(NCc3cccc(O)c3)c2)cc1OC | 50 to 90 |  | 
Oc1ccc(-c2cncc(NCc3ccc4c(c3)OCO4)c2)cc1 |  | 50 to 90 | 
COc1cccc(-c2cncc(NCc3cccc(O)c3)c2)c1 | 50 to 90 | 50 to 90 | IC50 [4]: < 1000 nM
CC(=O)Nc1cccc(-c2cncc(Nc3ccc(F)cc3)c2)c1 | 50 to 90 |  | 
Oc1cccc(CNc2cncc(-c3cccnc3)c2)c1 | 50 to 90 |  | 
CN(C)CCNC(=O)c1cccc(-c2cncc(NCc3cccc(O)c3)c2)c1 | 50 to 90 |  | 
O=C(NCCO)c1cccc(-c2cncc(NCc3cccc(O)c3)c2)c1 | 50 to 90 |  | 
Oc1cccc(CNc2cncc(Cc3cccc(O)c3)c2)c1 |  | 50 to 90 | inhibition [4]: > 90%
O=C(Nc1cncc(-c2cccc(O)c2)c1)c1cccc(O)c1 | > 90 |  | 
COC(=O)c1cccc(-c2cncc(NCc3cccc(O)c3)c2)c1 |  | 50 to 90 | inhibition [4]: > 90%
OCc1ccc(-c2cncc(NCc3cccc(O)c3)c2)cc1 | 50 to 90 | 50 to 90 | 
OCc1cccc(-c2cncc(NCc3cccc(O)c3)c2)c1 | 50 to 90 |  | 
Oc1cccc(CNc2cncc(-c3ccccc3)c2)c1 | 50 to 90 |  | 

The next lines start with results.

inhibition [2] [%] | inhibition [3] [%] | Structure (SMILES) | other results
50 to 90 |  | COc1cccc(-c2cncc(NCc3cccc(O)c3)c2)c1F | 
50 to 90 |  | CC(=O)Nc1cccc(-c2cncc(Nc3ccccc3F)c2)c1 | 
> 90 |  | Oc1cccc(CCNc2cncc(-c3cccc(O)c3)c2)c1 | 
50 to 90 |  | COC(=O)c1cccc(CNc2cncc(-c3cccc(O)c3)c2)c1 | 
50 to 90 | 50 to 90 | Cc1ccc(CNc2cncc(-c3cccc(O)c3)c2)cc1O | 
50 to 90 |  | Oc1ccc(-c2cncc(NCc3cccc(O)c3)c2)cc1 | IC50 [3]: < 1000 nM; inhibition [4]: > 90%
50 to 90 |  | NC(=O)c1cccc(-c2cncc(NCc3cccc(O)c3)c2)c1 | IC50 [3]: < 1000 nM
50 to 90 |  | Nc1cccc(-c2cncc(NCc3cccc(O)c3)c2)c1 | 
50 to 90 |  | Oc1cccc(CNc2cncc(-c3cccc(O)c3F)c2)c1 | 
